Reference: patent US20220244254A1, “Screening Methods and Assays for Use with Transmembrane Proteins, in Particular with GPCRs” (CONFO THERAPEUTICS N.V., priority 2019, published 2022)

Molecular target: T1, M2 receptor (Homo sapiens, UniProt P08172, DEL233-374)
T1 construct: FLAG (N); expressed in transfected cells
T1 sequence (P08172 with tags, fused parts or gaps DEL233-374): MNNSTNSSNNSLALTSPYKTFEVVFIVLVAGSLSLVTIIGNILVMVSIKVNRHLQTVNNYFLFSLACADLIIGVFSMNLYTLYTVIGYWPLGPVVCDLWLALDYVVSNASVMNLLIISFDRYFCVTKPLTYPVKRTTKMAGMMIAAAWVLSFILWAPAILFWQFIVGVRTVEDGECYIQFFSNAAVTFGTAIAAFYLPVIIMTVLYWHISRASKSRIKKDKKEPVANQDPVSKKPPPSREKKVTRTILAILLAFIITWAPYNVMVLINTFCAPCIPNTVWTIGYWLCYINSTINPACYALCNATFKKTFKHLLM
Assay: Assay of the invention: M2-LgBiT fusion and Nb9-8-SmBiT fusion
Type: cell-based

## Cc1c(Cl)c(OCC(=O)N2CCN(C)CC2)nc2sc(C(=O)NC3CC3)c(N)c12 [LY2119620]
LY2119620 itself, data not shown
  agonistic effect on the M2 receptor: some agonistic effect
Iperoxo DRC with and without LY2119620
  effect on the dose-response curve of iperoxo: effect as a positive allosteric modulator
